Measured values as given in paper PMC6581955, “Rosmarinic acid suppresses Alzheimer’s disease development by reducing amyloid β aggregation by increasing monoamine secretion” (Scientific Reports, 2019).
Values belong to the molecule of their own block, whether it stands above or below them.

What was measured:
[1] = tested on: brain serotonin concentration; set-up: method as in PMID 23009399; conditions: via inhibition of Maoa; cited from earlier work
Aβ [2] = tested on: Aβ; set-up: method as in PMID 14994335; conditions: screen of five polyphenols; cited from earlier work
[3] = cited from earlier work; for intestinal permeability: orally ingested polyphenols
Aβ1–42 = biological target: T1, Aβ1–42 (Homo sapiens, UniProt P05067); test: ThT assay (SensoLyte Thioflavin T β-Amyloid (1–42) Aggregation Kit); format: biochemical; conditions: 100 μM monoamine; for relative ThT fluorescence intensity (Aβ aggregation): 45 μM Aβ1–42, 37 °C; for time at which Aβ aggregation was significantly (p < 0.05) inhibited: 45 μM Aβ1–42, Dunnett's test
T1 construct: Dissolved lyophilized Aβ1–42 (PEPTIDE INSTITUTE, INC., Osaka, Japan); purchased PEPTIDE INSTITUTE, INC., Osaka, Japan
T1 sequence (P05067 672-713): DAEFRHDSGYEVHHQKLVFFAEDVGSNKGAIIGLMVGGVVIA
Protocol: Dissolved lyophilized Aβ1–42 (PEPTIDE INSTITUTE, INC., Osaka, Japan) in 2 mM NaOH produced a peptide concentration of 0.5 mg/mL, which was then subjected to sonication by a bath-type sonicator for 1 min prior to re-lyophilizing the resulting solution. The NaOH-treated Aβ1–42 lyophilizate was dissolved in 500 μL distilled water and sonicated for 1 min. We added 500 μL of 20 mM phosphate buffer and centrifuged the resulting solution for 10 min at 16,000 × g. The supernatant was used as the Aβ1–42 solution. Aggregation of Aβ1–42 was measured using the SensoLyte® Thioflavin T β-Amyloid (1–42) Aggregation Kit (ANASPEC Inc., Fremont, CA.) according to the manufacturer’s protocol. To measure the Aβ1–42 fibril formation in the 96-well black microplates, 10 μL of 2 mM ThT and 5 μL of each monoamine solution (2 mM) were added into each well and mixed with 85 μL Aβ1–42 solution. The final concentration of Aβ1–42 was 45 μM and that of each monoamine concentration was 100 μM. The ThT fluorescence signal was monitored with Ex/Em = 440 nm/484 nm using Varioskan LUX (Thermo Fisher Scientific) at 37 °C at intervals of 5 min and 10 min for 0–125 min and 140–175 min, respectively.
All samples were tested in triplicate, and data were shown as relative fluorescence units by subtracting the fluorescence level of the blank from the actual value.

Aβ [4] = tested on: Aβ; set-up: method as in PMID 15059976, PMID 23913715; conditions: cited from earlier work
Aβ [5] = tested on: Aβ; set-up: method as in PMID 19893028; conditions: Tg2576 mice, cited from earlier work
brain monoamines = test: Monoamine concentration in the whole brain of mice fed RA for 7 weeks (HPLC-ECD); format: in vivo, C57BL/6 J mice; conditions: 0.5% RA diet for 7 weeks vs control
Protocol: The whole brain was collected under isoflurane anesthesia after 7 weeks of breeding (C and RA group). Buffer (2.0 mM NaHSO3, 20 μM EDTA • 2Na, 0.10 M HClO4; 1 mL/0.1 g of brain tissue) was added to the brain sample, the mixture was then homogenized with a Polytron and centrifuged at 12,000 × g at 4 °C for 5 min to obtain a brain extract supernatant. The supernatants were recovered, passed through 0.45 μm filters, and the concentration of monoamines in the filtrates was measured using HPLC-ECD. The conditions of chromatography were given in Supplemental Methods.

[6] = Side effects in the animal study; format: in vivo, mice; conditions: RA-fed animals
DA in brain sections = test: DA imaging by IMS (MALDI-TOFMS); format: in vivo, C57BL/6 J mice; conditions: 0.5% RA diet for 10 days
Protocol: Because it has been reported that isoflurane anesthesia increases the release of DA in rat striatum, we adopted decapitation after cervical dislocation without anesthesia to euthanize the mice after 10 days of breeding (C and RA group). The left hemisphere of the brain of each mouse was collected, then sagittal sections 8 μm thick were prepared using a cryostat (CM-3050 S; LEICA, Germany) at −25 °C and mounted on a glass slide coated with indium tin oxide. Sections were sprayed with DPP and incubated at 40 °C for 30 min, and then sprayed with 2,5-dihydroxybenzoic acid to improve ionization efficiency. The surface of the sections was ionized by irradiation with laser light at 200 μm intervals using an Ultrafle Xtreme (matrix-assisted laser desorption/ionization time-of-flight mass spectrometer) (MALDI-TOFMS) (Bruker Daltonik GmbH, Bremen, Germany). The peak of DPP-derivatized DA (m/z: 368.2), which constitutes a complex of the target substance (DA) and DPP, was measured two-dimensionally. Only DA that could be derivatized was measured.

[7] = tested on: brain capillary endothelial cell monolayers; test: BBB permeability in an in vitro BBB model (BBB Kit); format: in vitro ADME; conditions: caffeine positive, Na-F negative control, n = 3
Protocol: We measured the BBB permeability by using the BBB Kit (PharmaCo-Cell, Nagasaki, Japan) according to the manufacturer’s instructions. CA was used as a positive control, and Na-F as a negative control. The concentration of the assay buffer on the brain parenchyma side was measured by HPLC–ECD as per the in vivo RA transferability test. Na-F was measured with Ex/Em = 485/538 nm using a FlexStarion 3-fluorescence-plate reader (Molecular Devices, CA, USA). The permeability coefficient (Pe: × 10^−6 cm/sec) was calculated as follows using the concentration of the test substance added to the luminal side ([C]Luminal), the concentration of test compound that passed through to the […] every 20 minutes ([C]Abluminal), and the amount on the brain parenchyma side (VAbluminal). Volume(µL)=([C]Abluminal×VAbluminal)/[C]Luminal The amount of permeation was plotted every 20 min and the value of the slope of the formula of the quantity transmitted for each time was used as the permeation index (PS). […] 1/PSendothelial=1/PStotal−1/PSmembrane Pe was calculated by dividing PSendothelial by the insert surface area (A). […]

[8] = tested on: mRNA of DA-metabolizing enzymes, Tieg2, Tgf-β1; test: Relative mRNA measurement in cerebral cortex, SN and VTA by qRT-PCR; format: in vivo, C57BL/6 J mice
From the text: The mice were divided into two groups, C and RA, as mentioned above, and fed with the appropriate diet for 11 days. We collected SN and VTA from the brain according to methods previously described. In brief, we collected the whole brain, washed it with saline, and obtained 1 mm thick coronal sections using a brain slicer BS-Z 2000C (Muromachi Kikai Co., Ltd., Tokyo, Japan). Referring to the Allen Brain Atlas[55], we acquired the SN and VTA from the relevant sections.
Total RNA was extracted from SN, and VTA using TRIzol (Invitrogen) according to the manufacturer’s manual. After checking the quality of total RNA, we synthesized cDNA using PrimeScript^TM RT Master Mix (Perfect Real Time) (TaKaRa Bio, Shiga, Japan). The primer sequences and conditions for our qRT–PCR are given in Suppl. Table S1 and Supplemental Methods. Results are expressed as mean of fold change compared with control condition (SE as error bars, n = 5, 6). All samples were tested in triplicate and the data were normalized to GAPDH (cerebral cortex) or β-actin (SN and VTA).

[9] = In vivo RA transferability test (HPLC-ECD of plasma and brain); set-up: species or system C57BL/6 J mice; conditions: C57BL/6 J, mouse, plasma, oral, 0.5 % (fed), mice fed 0.5% RA for 7 weeks, mean ± S.E. (n = 5)
Protocol: The blood and whole brain were collected under isoflurane anesthesia after 7 weeks of breeding (C and RA group). The blood samples were centrifuged at 1,800 × g at 4 °C for 10 min to obtain EDTA plasma.
Phosphate-buffered saline (PBS) (1 mL/0.1 g of brain tissue) was added to the brain tissue sample and homogenized with a Polytron homogenizer. After that, the samples were centrifuged at 4,000 × g at 4 °C for 40 min to obtain the brain extract supernatant. The plasma and brain extract were processed as follows. In the β-glucuronidase-treated group, 50 μL of plasma or brain extract was suspended in 50 μL of 200 U β-glucuronidase and 0.1 M sodium acetate buffer (pH 5.0). Then the samples were incubated at 37 °C for 45 min. In the non-treated group, 50 μL of plasma or brain extract were suspended in 50 μL of 0.1 M sodium acetate buffer and incubated as above. After incubation, 200 μL of 0.83 M methyl acetate buffer was added to the samples of both groups, the protein was precipitated by vortex stirring for 1 minute, treated with sonication for 1 minute, and centrifuged at 8,500 × g at 4 °C for 5 min. The supernatants were recovered and passed through 0.45 μm filters, and the concentrations of RA and metabolites in the filtrates were measured using an Ultimate 3000 HPLC-ECD (Thermo Fisher scientific, Massachusetts, US). The conditions of chromatography were the same as the previous report.

[10] = tested on: monoamines in cerebral cortex, striatum, hippocampus; test: Monoamine concentration in brain regions after single dose or 11 days of RA; format: in vivo, mice
Protocol: In order to examine the effect of a single dose of RA, we conducted intragastric administration of RA at 0.1 m mol/kgBW to wild type mice and measured the monoamine concentration in three brain regions (cerebral cortex, striatum, and hippocampus) after 0, 60, and 240 min. […] Therefore, we extended the RA administration period to 11 days.

striatum DA and NE = tested on: striatum DA and NE; set-up: method as in PMID 25756794; conditions: fed for 20 days; with elevated Th expression in SN; cited from earlier work
[11] = RA diet 11 days, normalized to β-actin
[12] = 0.5% RA diet 11 days vs controls, P < 0.05

Compound: O=c1c(O)c(-c2ccc(O)c(O)c2)oc2cc(O)cc(O)c12 [quercetin]
brain serotonin concentration [1]: suppressed a decrease

Compound: COc1cc(/C=C/C(=O)O)ccc1O [FA, ferulic acid]
Aβ aggregation in vitro (Aβ [2]): significantly inhibited

Compound: COc1cc(/C=C/C(=O)CC(=O)/C=C/c2ccc(O)c(OC)c2)ccc1O [Cur, curcumin, reference compound]
intestinal permeability [3]: approximately 0.1%
Aβ aggregation in vitro (Aβ [2]): significantly inhibited

relative ThT fluorescence intensity (Aβ aggregation) (Aβ1–42): lower than that in their absence
time at which Aβ aggregation was significantly (p < 0.05) inhibited (Aβ1–42): 20 to 160 min
Compound: N[C@@H](Cc1ccc(O)c(O)c1)C(=O)O [L-DOPA, levodopa]
Aβ aggregation (Aβ [4]): inhibit

relative ThT fluorescence intensity (Aβ aggregation) (Aβ1–42): lower than that in their absence
time at which Aβ aggregation was significantly (p < 0.05) inhibited (Aβ1–42): 15 to 160 min
Compound: NCCc1ccc(O)c(O)c1 [DA, dopamine]
Aβ aggregation (Aβ [4]): inhibit

transendothelial permeability (Pe) [7]: lowest value
Tgf-β1 gene expression in SN and VTA ([8]; RA diet 11 days): significantly downregulated
Tieg2 gene expression in SN and VTA ([8]; RA diet 11 days vs controls): significantly decreased
Th mRNA level in cerebral cortex ([8]; RA diet 11 days, P = 0.13): somewhat increased
mRNA levels of DA-metabolizing enzymes in cerebral cortex ([8]; RA diet 11 days, normalized to GAPDH): no significant difference
Comt mRNA expression in SN [8, 11]: significantly downregulated
Maob mRNA expression in SN [8, 11]: significantly downregulated
Maob mRNA expression in VTA [8, 11]: significantly downregulated
concentration at 7 weeks ([9]; β-glucuronidase not reacted): 590 ± 220 nM
concentration at 7 weeks ([9]; β-glucuronidase reacted): 750 ± 150 nM
Compound: O=C(/C=C/c1ccc(O)c(O)c1)O[C@H](Cc1ccc(O)c(O)c1)C(=O)O [RA, rosmarinic acid]
Aβ deposition in the brain (immunohistochemistry) (Aβ [5]; RA diet for 10 months): significantly decreased
Aβ aggregation inhibitory activity in the brain, among five polyphenols (Aβ [5]): highest
DA concentration in whole brain (brain monoamines): changed but not significantly
DOPAC concentration in whole brain (brain monoamines): significantly increased
L-DOPA concentration in whole brain (brain monoamines): significantly increased
NE concentration in whole brain (brain monoamines): changed but not significantly
side effects including nausea and vomiting [6]: not observed
intestinal permeability [3]: ~1%
intestinal permeability, of intake volume ([3]; previous in vitro study): < 1%
DPP-derivatized DA signals in cerebral cortex and striatum (DA in brain sections): more strongly than in control group
Aβ aggregation in vitro (Aβ [2]): significantly inhibited
DOPAC level in cerebral cortex [10, 12]: increased significantly
L-DOPA level in cerebral cortex [10, 12]: increased significantly
NE level in cerebral cortex [10, 12]: increased significantly
DA level in cerebral cortex ([10]; 0.5% RA diet 11 days vs controls, P = 0.068): somewhat increased
monoamine concentration in striatum and hippocampus ([10]; RA diet 11 days, data not shown): not significantly changed
monoamine concentration in cerebral cortex, striatum and hippocampus ([10]; single intragastric dose 0.1 m mol/kgBW, 0, 60, 240 min, data not shown): no significant differences

relative ThT fluorescence intensity (Aβ aggregation) (Aβ1–42): lower than that in their absence
Compound: O=C(O)Cc1ccc(O)c(O)c1 [DOPAC, 3,4-dihydroxyphenylacetic acid]

relative ThT fluorescence intensity (Aβ aggregation) (Aβ1–42): lower than that in their absence
time at which Aβ aggregation was significantly (p < 0.05) inhibited (Aβ1–42): 20 to 160 min
Compound: NC[C@H](O)c1ccc(O)c(O)c1 [NE, norepinephrine]

Compound: Cn1cnc2c1c(=O)[nH]c(=O)n2C [theobromine]
DA and NE concentrations in the striatum (striatum DA and NE): significant increases
